These results are taken from US11396496B2, “1,4-substituted isoquinoline inhibitors of KEAP1/NRF2 protein-protein interaction” (THE BOARD OF TRUSTEES OF THE UNIVERSITY OF ILLINOIS, priority 2018, dated 2022).

The target of series [1] is Kelch domain of KEAP1 (Homo sapiens (Human), UniProt Q14145). Briefly: Fluorescence anisotropy assay of KEAP1-NRF2 interaction inhibition. The settings on record: for binding affinity (in words): qualitative statement on the fluorescence anisotropy results. Format: binding. The protocol:
The IC50 of the compounds for inhibiting the interaction of a fluorescent NRF2 peptide and the Kelch domain of KEAP1 was determined using fluorescence anisotropy. See Inoyama et al., J. Biomol.
Test compounds' ability to inhibit the KEAP1-NRF2 interaction were assayed using the Kelch domain of KEAP1 and a fluorescein-labeled 9-mer peptide containing the ETGE motif of the Neh2 domain of NRF2. The experiments were performed in triplicate, and sigmoidal concentration-response curves were fitted to the data using Graphpad Prism 6.1 software.
For orientation: In fluorescence polarisation assays a small probe gives low polarisation when free and higher when bound to something large.

The nature of series [2]: Log D7.4 (1-octanol / HEPES buffer pH 7.4). It is filed as physicochemical. The settings on record: HEPES buffer pH 7.4 / 1-octanol, mean of triplicate; for logD at 1 h: 1-octanol / HEPES buffer. On the procedure:
This solution was diluted to nine known concentration solutions (1200, 800, 400, 120, 80, 40, 12, 8, and 4 μM) in MeCN. Each solution was analyzed by HPLC, and a calibration curve was plotted using the peak areas from the standard concentrations. 20 μL of the 10 mM DMSO stock solution of each compound was partitioned between […] of buffer (200 mM HEPES, 150 mM NaCl, pH 7.4) and […] of 1-octanol. The mixture was mixed for 1 h. Each layer was injected separately onto a Shimadzu LC-20AB HPLC system (Solvent system: gradient from 15% MeCN/85% H2O to 95% MeCN/5% H2O (+0.1% formic acid) over 13 min; Column, Shimadzu C18, […], 50×4.6 mm; UV, 254 nm). The equilibrium solubility in the buffer layer and the 1-octanol layer of test compounds was determined by quantifying the concentration of test solutions against the calibration curve. Experiments were run in triplicate, and results were tabulated and reported as mean. […] Thus, including an electron withdrawing group at position R^4 results in improved pharmacokinetics, such as an improved ability to cross cell membranes.

Series [3] is described as follows: Microsomal stability study. It is filed as in vitro ADME. The conditions noted are these: human liver microsomes in buffer, 20 min. The text has this:
LC-MS grade acetonitrile (MeCN), methanol (MeOH), formic acid, and biology grade DMSO were purchased from Fisher Scientific (Pittsburgh, Pa.). LC-MS grade water was generated using a Barnstead Nanopure Diamond water system (Thermo Scientific, Pittsburgh, Pa.). All other reagents, if not specified, were purchased from Sigma-Aldrich (Saint Louis, Mo.). Pooled human liver microsomes and mouse liver microsomes were purchased from Sekisui XenoTech (Kansas City, Kans.). Preparation of Standard. The initial stock solutions of test compounds were prepared in DMSO at 10 mM, and then diluted with MeOH to 200 μM before use. All stock solutions were stored at −20° C. Liver microsomes were aliquoted upon arrival and stored at −80° C. Samples were analyzed on a Shimadzu 8040 triple-quadrupole mass spectrometer (Shimadzu, Addison, Ill.) equipped with electrospray ion source and Shimadzu Nexera XR UHPLC system. Mobile phase A contained water with 0.025% (v/v) FA, and mobile phase B consisted of MeCN with 0.1% (v/v) FA. Five microliters of sample was injected. Study compounds were eluted on a Kinetex C18 column (3.0×50 mm, 2.6 μm; Phenomenex, Torrance, Calif.) at 500 μL/min using a gradient program: mobile phase B started and maintained at 15% for 1 min, then increased to 95% in 4 min. Nebulizing gas flow and drying gas flow were set to 2 and 15 L/min. DL temperature, heat block temperature, and ion spray voltage were maintained at 300° C., 450° C. and 4500 V, respectively.
In general terms: Liver microsomes are a subcellular fraction often used to study metabolism.

For series [4], the system named is NADPH quinone oxidoreductase (NQO1). Briefly: NRF2 target gene activation: NQO1 protein levels by Western Blot in HaCaT keratinocytes. The settings on record: HaCaT cells, 10 μM compound, 6 h. It is filed as cell-based, human. On the procedure:
(§1) Molecules that block the degradatior of NRF2 serve as NRF2 activators. This has the effect of stabilizing NRF2 protein levels and upregulating target gene levels, such as NQO1. […] CDDO is a positive control compound that activates NRF2 through an electrophilic mechanism. […] HaCat Cells were treated with 10 μM compound unless otherwise indicated.
(§2) Spontaneously immortalized human keratinocytes (HaCaT cell line) were grown in Dubecco's modified Eagle's medium (DMEM) with 10% fetal bovine serum and 1% antibiotics. […] Cells were lysed in a 20 mM Tris (pH 7.5) buffer containing 150 mM NaCl, 1 mM EDTA, 1 mM EGTA, 1% Triton X-100, 2.5 mM sodium pyrophosphate, 1 mM Na3VO4, 5 mM β-glycerophosphate, and 1 μg/mL leupeptin. Equal amount of protein (˜40 μg) was separated on a 10% SDS-PAGE, blotted on the membrane, and probed with antiNRF2, or anti-NQO1 antibody. […] CDDO is a positive control compound that activates NRF2 through an electrophilic mechanism.
Background: Immunoblotting shows a protein as a band on a membrane.

Series [5] deals with NRF2. Briefly: NRF2 stabilization by Western Blot in HaCaT keratinocytes. It is filed as cell-based, human. The settings on record: HaCaT cells, 10 μM compound, 6 h, relative to vehicle (DMSO) control. On the procedure: as §1, §2
[6] abbreviates: fluorescent NRF2 peptide and Kelch domain of KEAP1, fluorescence anisotropy.

Sequence of Kelch domain of KEAP1 (Q14145 321-609): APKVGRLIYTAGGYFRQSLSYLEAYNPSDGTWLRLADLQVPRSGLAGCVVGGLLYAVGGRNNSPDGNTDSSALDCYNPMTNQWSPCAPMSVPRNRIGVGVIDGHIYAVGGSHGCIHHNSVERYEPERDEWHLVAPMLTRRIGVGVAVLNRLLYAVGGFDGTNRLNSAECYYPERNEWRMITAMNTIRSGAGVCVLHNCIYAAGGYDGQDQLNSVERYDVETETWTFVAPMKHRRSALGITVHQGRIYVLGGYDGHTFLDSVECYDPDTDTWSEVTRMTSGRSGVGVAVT

The term IC50 denotes the midpoint of a concentration-inhibition curve. Read a low IC50 as higher potency. Regarding `COc1ccc(S(=O)(=O)Nc2ccc(/C=C/C(=O)O)c3ccccc23)cc1` [Compound C9, (E)-3-(4-((4-methoxyphenyl)sulfonamido)naphthalen-1-yl)acrylic acid], the 50% inhibitory concentration (IC50) was determined as 9.3 µM in series [1] (Table C, unit inferred) and 9.3 µM in series [1] (setting [6]).
Regarding `COc1ccc(S(=O)(=O)Nc2cnc(N3CCC[C@H]3C(=O)O)c3ccccc23)cc1` [Compound C6, (4-((4-methoxyphenyl)sulfonamido)isoquinolin-1-yl)-L-proline], the 50% inhibitory concentration (IC50) in series [1] (Table C, unit inferred) is 5 µM; in series [1] (setting [6]), 5 µM.
What is called logD is lipophilicity at a set pH, counting ionised and neutral species. `COc1ccc(S(=O)(=O)N(CC(F)(F)F)c2cnc(N(CC(=O)O)S(=O)(=O)c3ccc(OC)cc3)c3ccccc23)cc1` [Compound B0, N-(4-((4-methoxy-N-(2,2,2-trifluoroethyl)phenyl)sulfonamido)isoquinolin-1-yl)-N-((4-methoxyphenyl)sulfonyl)glycine] showed a pH-dependent lipophilicity (logD) at 1 h in series [2] of 0.5.
On to `COc1ccc(S(=O)(=O)Nc2cnc(N3CC[C@H](c4ccccc4)C3)c3ccccc23)cc1` [Compound C8, (R)-4-methoxy-N-(1-(3-phenylpyrrolidin-1-yl)isoquinolin-4-yl)benzenesulfonamide], for which the IC50 in series [1] (Table C, unit inferred) was above 25 µM; in series [1] (setting [6]) it was above 25 µM.
Consider `COc1ccc(S(=O)(=O)Nc2ccc(CCC(=O)O)c3ccccc23)cc1` [Compound C11, 3-(4-((4-methoxyphenyl)sulfonamido)naphthalen-1-yl)propanoic acid], for which the IC50 came to 6 µM in series [1] (Table C, unit inferred) and 6 µM in series [1] (setting [6]).
Turning to `COc1ccc(S(=O)(=O)Nc2cnc(N3CC[C@@H](c4ccccc4)C3)c3ccccc23)cc1` [Compound C7, (S)-4-methoxy-N-(1-(3-phenylpyrrolidin-1-yl)isoquinolin-4-yl)benzenesulfonamide], the IC50 was above 25 µM in series [1] (Table C, unit inferred) and above 25 µM in series [1] (setting [6]).
`[2H]C([2H])([2H])N(c1cnc(N(CC(=O)O)S(=O)(=O)c2ccc(OC)cc2)c2ccccc12)S(=O)(=O)c1ccc(OC)cc1` [Compound A9, N-(4-((4-methoxy-N-(methyl-d3)phenyl)sulfonamido)isoquinolin-1-yl)-N-((4-methoxyphenyl)sulfonyl)glycine] came in with an IC50 in series [1] (setting [6]) of 1.23 µM. Further, in series [1], the “binding affinity (in words)” value is reported as “significantly diminished the binding affinity”. In addition, the metabolic stability result in series [3] is reported as “degraded substantially”.
As to `COc1ccc(S(=O)(=O)Nc2cnc(N(CC(=O)O)S(=O)(=O)c3ccc(OC)cc3)c3ccccc23)cc1` [Compound A6, N-(4-((4-methoxyphenyl)sulfonamido)isoquinolin-1-yl)-N-((4-methoxyphenyl)sulfonyl)glycine], in series [1] (setting [6]), the IC50 amounted to 0.212 µM. This compound registered a logD in series [2] of −1.6. Moreover, in series [3], the metabolic stability entry is “degraded substantially”. Also, the “levels of NQO1” value in series [4] is given as “increase the levels of NQO1”. The “stabilization of NRF2 expression” value in series [5] is reported as “stabilize NRF2 expression”.
With `COc1ccc(S(=O)(=O)N(C)c2ncc(N(CC(=O)O)S(=O)(=O)c3ccc(OC)cc3)c3ccccc23)cc1` [Compound A3, N-(1-((4-methoxy-N-methylphenyl)sulfonamido)isoquinolin-4-yl)-N-((4-methoxyphenyl)sulfonyl)glycine], half-maximal inhibition in series [1] (setting [6]) (IC50) required 2 µM. The same compound had a logD at 1 h in series [2] of 0. Besides, the metabolic stability entry in series [3] is listed as “significantly more metabolically stable”.
In the case of `O=C(O)CN(c1cnc(N(CC(=O)O)S(=O)(=O)c2ccc(F)cc2)c2ccccc12)S(=O)(=O)c1ccc(F)cc1` [Compound A5, 2,2′-(isoquinoline-1,4-diylbis(((4-fluorophenyl)sulfonyl)azanediyl))diacetic acid], the IC50 in series [1] (setting [6]) is 0.35 µM. Further, in series [1], the “binding affinity (in words)” value is “high binding affinities”.
Consider `COc1ccc(S(=O)(=O)Nc2cnc(N3CCC[C@@H]3C(=O)O)c3ccccc23)cc1` [Compound C5, (4-((4-methoxyphenyl)sulfonamido)isoquinolin-1-yl)-D-proline], for which the IC50 in series [1] (Table C, unit inferred) is above 25 µM; in series [1] (setting [6]), above 25 µM.
For the compound `O=C(O)CN(c1cnc(N(CC(=O)O)S(=O)(=O)c2ccc(O)cc2)c2ccccc12)S(=O)(=O)c1ccc(O)cc1` [Compound A4, 2,2′-(isoquinoline-1,4-diylbis(((4-hydroxyphenyl)sulfonyl)azanediyl))diacetic acid], in series [1] (setting [6]), half-maximal inhibition (IC50) required 0.53 µM. Further, the “binding affinity (in words)” value in series [1] was “high binding affinities”.
`COc1ccc(S(=O)(=O)Nc2ncc(N(CC(=O)O)S(=O)(=O)c3ccc(OC)cc3)c3ccccc23)cc1` [Compound A2, N-(1-((4-methoxyphenyl)sulfonamido)isoquinolin-4-yl)-N-((4-methoxyphenyl)sulfonyl)glycine] had an IC50 in series [1] (setting [6]) of 1.2 µM. For the same compound, the pH-dependent lipophilicity (logD) at 1 h in series [2] is -0.5.
On to `COc1ccc(S(=O)(=O)N(C)c2cnc(N(CC(=O)O)S(=O)(=O)c3ccc(OC)cc3)c3ccccc23)cc1` [Compound A8, N-(4-((4-methoxy-N-methylphenyl)sulfonamido)isoquinolin-1-yl)-N-((4-methoxyphenyl)sulfonyl)glycine], for which, in series [1] (setting [6]), the IC50 turned out to be 1.1 µM. Also, the “binding affinity (in words)” value in series [1] is “significantly diminished the binding affinity”. The compound further showed a pH-dependent lipophilicity (logD) at 1 h in series [2] of 0. For the same compound, in series [3], the metabolic stability result was “degraded substantially”.
In the case of `COc1ccc(CCc2ccc(NS(=O)(=O)c3ccc(OC)cc3)c3ccccc23)cc1` [Compound C13, 4-methoxy-N-(4-(4-methoxyphenethyl)naphthalen-1-yl)benzenesulfonamide], the IC50 in series [1] (Table C, unit inferred) was above 25 µM; in series [1] (setting [6]), above 25 µM.
Regarding `COc1ccc(S(=O)(=O)N(CC(=O)O)c2cnc(N(CC(=O)O)S(=O)(=O)c3ccc(OC)cc3)c3ccccc23)cc1` [Compound A1, 2,2′-(isoquinoline-1,4-diylbis(((4-methoxyphenyl)sulfonyl)azanediyl))diacetic acid], the pH-dependent lipophilicity (logD) in series [2] was −1.5.
